From patent publication US20060025566A1, “Macrocyclic modulators of the ghrelin receptor” (Tranzyme Pharma Inc., priority 2003, published 2006) come the findings set out here.

Bounds are passed on as bounds.

The target of one assay is T1, human growth hormone secretagogue receptor (hGHS-R1a) (Homo sapiens, UniProt Q92847).
T1 construct: purchased PerkinElmer BioSignal #RBHGHSM, lot#1887; host or cells: HEK-293, stably transfected (membranes)
T1 sequence (Q92847 whole entry): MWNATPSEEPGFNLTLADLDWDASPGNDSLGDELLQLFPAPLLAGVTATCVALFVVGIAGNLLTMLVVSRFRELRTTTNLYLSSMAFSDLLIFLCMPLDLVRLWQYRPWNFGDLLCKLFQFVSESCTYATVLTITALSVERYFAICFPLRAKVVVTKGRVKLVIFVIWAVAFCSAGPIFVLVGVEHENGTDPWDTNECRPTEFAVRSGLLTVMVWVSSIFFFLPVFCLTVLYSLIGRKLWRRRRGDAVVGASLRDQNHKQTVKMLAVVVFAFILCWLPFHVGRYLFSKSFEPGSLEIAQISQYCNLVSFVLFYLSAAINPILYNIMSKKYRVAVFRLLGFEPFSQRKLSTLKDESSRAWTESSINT
The assay can be described thus: Competitive radioligand binding assay (ghrelin receptor), [125I]-ghrelin displacement on GHS-R/HEK 293 membranes. To be noted: Table 3E, human ghrelin receptor; read-out: Ki. The procedure: The competitive binding assay at the human growth hormone secretagogue receptor (hGHS-R1a) was carried out analogously to assays described in the literature.
Multiscreen Harvest plates-GF/C (Millipore, #MAHFC 1H60) • 4. […] Bottom seal (Millipore, #MATAH0P00) • 7. […] Binding Buffer: 25 mM Hepes (pH 7.4), 1 mM CaCl2, 5 mM MgCl2, 2.5 mM EDTA, 0.4% BSA Assay Volumes
Competition experiments were performed in a 300 μl filtration assay format. • 1. 220 μL of membranes diluted in binding buffer • 2. 40 μL of compound diluted in binding buffer • 3. […] Compound Handling
Compounds were provided frozen on dry ice at a stock concentration of 10 mM diluted in 100% DMSO and stored at −80° C. until the day of testing. On the test day, compounds were allowed to thaw at rt O/N and then diluted in assay buffer according to the desired test concentrations.
Plates were sealed with TopSeal-A, vortexed gently and incubated at rt for 30 min. The reaction was arrested by filtering samples through Multiscreen Harvest plates (pre-soaked in 0.5% polyethyleneimine) using a Tomtec Harvester, washed 9 times with 500 μL of cold 50 mM Tris-HCl (pH 7.4, 4° C.), and then plates were air-dried in a fumehood for 30 min. A bottom seal was applied to the plates prior to the addition of 25 μL of MicroScint-0 to each well. […] Results were expressed as counts per minute (cpm).
Data were analyzed by GraphPad Prism (GraphPad Software, San Diego, Calif.) using a variable slope non-linear regression analysis.
• 1. […] Key Aspects of Method • 1. […] Results
`CCC[C@@H]1NCCOc2ccccc2CCCNC(=O)[C@@H](Cc2ccccc2)NC(=O)[C@@H]2CCCN2C1=O`: the Ki lay in the range of 1000 to 10000 nM.
On the same count and under the same terms, with `CCC[C@@H]1NCCOc2ccccc2CCCNC(=O)[C@@H](Cc2ccccc2)NC(=O)[C@H]2CCCN2C1=O` the figure was 100 to 1000 nM; with `CCC[C@@H]1NCCOc2ccccc2CCCNC(=O)[C@H](Cc2ccccc2)NC(=O)[C@@H]2CCCN2C1=O`, 1000 to 10000 nM; with `CCC[C@@H]1NCCOc2ccccc2CCCNC(=O)[C@H](Cc2ccccc2)NC(=O)[C@H]2CCCN2C1=O`, 1000 to 10000 nM.
For `CCC(C)[C@@H]1NCCOc2ccccc2CCCNC(=O)[C@@H](Cc2ccccc2)NC(=O)[C@H]2C[C@H](O)CN2C1=O` (stereo partly drawn), the Ki was over 10000 nM.
On to `C[C@@H]1C(=O)N[C@H](Cc2ccccc2)C(=O)NCCCc2ccccc2OCCN2CCC[C@H]2C(=O)N1C`, for which the Ki was in the range of 100 to 1000 nM.
On the same count and under the same terms, with `CCC(C)[C@@H]1NCCOc2ccccc2CCCNC(=O)[C@@H](Cc2ccccc2)N2CC[C@@H](NC1=O)C2=O` (stereo partly drawn) the figure was 100 to 1000 nM; with `CCC(C)[C@@H]1NCCOc2ccccc2CCCNC(=O)[C@@H](Cc2ccccc2)N2CC[C@H](NC1=O)C2=O` (stereo partly drawn), over 10000 nM; with `CCC(C)[C@@H]1NCCOc2ccccc2CCCNC(=O)[C@@H](Cc2ccccc2)N2CC[C@H](C2=O)N(C)C1=O` (stereo partly drawn), 10 to 100 nM.
In the case of `CCC(C)[C@@H]1NCCOc2ccccc2CCCNC(=O)[C@@H](Cc2ccccc2)N2CC[C@@H](C2=O)N(C)C1=O` (stereo partly drawn), the Ki lay in the range of 100 to 1000 nM.

The assay is the same for the next values; noted with them: [125I]-ghrelin competition, GHS-R/HEK 293 membranes; Table 3A; read-out: Binding Activity at the Human Ghrelin Receptor.
Turning to `CCC(C)C1NCCc2ccccc2CCCCNC(=O)C(Cc2ccccc2)NC(=O)C(C)N(C)C1=O` (single isomer, unassigned) [189a], the Ki fell in the range of 100 to 1000 nM.
The same measure, in the same setting: then `CC(C)CC1NCCOc2ccccc2C=CCNC(=O)C(Cc2ccccn2)NC(=O)C2(CCCC2)NC1=O` (stereo in doubt) [160a], with over 1000 nM.

Staying with this assay, now noted: binding activity at the human ghrelin receptor, [125I]-ghrelin competition, GHS-R/HEK 293 membranes; read-out: Ki.
Regarding `CCC1NCCOc2ccccc2C=CCNC(=O)C(Cc2ccccc2)NC(=O)C2(CCCC2)NC1=O` (single isomer, unassigned) [136a], the Ki was 10 to 100 nM.
The same measure, in the same setting: then `CCC1NCCOc2ccccc2/C=C/CNC(=O)C(Cc2ccccc2)NC(=O)C2(CCCC2)NC1=O` (single isomer, unassigned) [136b], with 100 to 1000 nM.
Still for that read-out and setting: then `CCC(C)C1NCCOc2ccccc2CCCNC(=O)C(Cc2ccccc2)NC(=O)C(C(C)C)N(C)C1=O` (single isomer, unassigned) [145a], with 100 to 1000 nM.
Same read-out and setting: then `CCC(C)C1NCCOc2ccccc2CCCNC(=O)C(Cc2ccccc2)NC(=O)C(C(C)C)N(C)C1=O` (single isomer, unassigned) [145b], with over 1000 nM; and `CCC[C@@H]1NC(=O)[C@@H](C(C)C)NCCOc2ccccc2C=CCNC(=O)[C@H](Cc2ccccc2)NC1=O` (stereo in doubt) [compound 13], with 100 to 1000 nM; and `CC[C@H](C)[C@@H]1NCCOc2ccccc2C=CCNC(=O)[C@H](Cc2ccccc2)NC(=O)[C@@H](C)NC1=O` (stereo in doubt) [compound 14], with 100 to 1000 nM.
Turning to `CC(C)C[C@@H]1NCCOc2ccccc2C=CCNC(=O)[C@H](CCC(=O)O)NC(=O)C2(CCCC2)NC1=O` (stereo in doubt) [compound 45], the Ki was over 10000 nM.
On the same count and under the same terms, then `CC(C)C[C@@H]1NCCOc2ccccc2C=CCNC(=O)[C@H](C(C)C)NC(=O)C2(CCCC2)NC1=O` (stereo in doubt) [compound 46], with over 10000 nM.

Still in this assay, the particulars now being: second table titled 3C (compounds 435-449), human ghrelin receptor; read-out: Ki.
Turning to `CCC(C)C1NCCOc2ccccc2/C=C/CNC(=O)C(CO)NC(=O)C2(CCCC2)NC1=O` (single isomer, unassigned) [442a], the Ki is over 10000 nM.
Same read-out and setting: then `CCC(C)C1NCCOc2ccccc2/C=C/CNC(=O)C(COC)NC(=O)C2(CCCC2)NC1=O` (single isomer, unassigned) [443a], with over 10000 nM; and `CC(C)CC1NCCOc2ccccc2/C=C/CNC(=O)C(Cc2c[nH]cn2)NC(=O)C2(CCCC2)NC1=O` (single isomer, unassigned) [444a], with over 10000 nM.
As to `CC1C(=O)NC(Cc2ccc(F)cc2)C(=O)NCCOCCOCCNC(C2CC2)C(=O)N1C` (single isomer, unassigned) [446a], the Ki fell in the range of 1000 to 10000 nM.
